These results are taken from patent US11584714B2 (priority 2018, dated 2023).

What all share (assay type): biochemical
For one assay, the target named is MASP-2 (CCP1-CCP2-SP) (Homo sapiens (Human), UniProt O00187). Briefly: biochemical. The settings on record: for MASP-2 vs. thrombin selectivity: selectivity for MASP-2 inhibition versus thrombin.
The target in a further assay is mMASP-2 (Mus musculus (Mouse), UniProt Q91WP0). Briefly: Enzymatic inhibition of mMASP-2.
The target in a further assay is human α-thrombin (Homo sapiens (Human), UniProt P00734). Briefly: Enzymatic assay for thrombin (Boc-VPR-AMC substrate).
Another assay relates to Lectin Pathway. Briefly: Lectin pathway activation assay in human serum (mannan-coated ELISA, C3c detection). The settings on record: 1% human serum.

Structures can show the parent of a compound that is named as a salt. Where two headings read alike, the source gives them in different places.

Chain of mMASP-2 (Q91WP0 20-685): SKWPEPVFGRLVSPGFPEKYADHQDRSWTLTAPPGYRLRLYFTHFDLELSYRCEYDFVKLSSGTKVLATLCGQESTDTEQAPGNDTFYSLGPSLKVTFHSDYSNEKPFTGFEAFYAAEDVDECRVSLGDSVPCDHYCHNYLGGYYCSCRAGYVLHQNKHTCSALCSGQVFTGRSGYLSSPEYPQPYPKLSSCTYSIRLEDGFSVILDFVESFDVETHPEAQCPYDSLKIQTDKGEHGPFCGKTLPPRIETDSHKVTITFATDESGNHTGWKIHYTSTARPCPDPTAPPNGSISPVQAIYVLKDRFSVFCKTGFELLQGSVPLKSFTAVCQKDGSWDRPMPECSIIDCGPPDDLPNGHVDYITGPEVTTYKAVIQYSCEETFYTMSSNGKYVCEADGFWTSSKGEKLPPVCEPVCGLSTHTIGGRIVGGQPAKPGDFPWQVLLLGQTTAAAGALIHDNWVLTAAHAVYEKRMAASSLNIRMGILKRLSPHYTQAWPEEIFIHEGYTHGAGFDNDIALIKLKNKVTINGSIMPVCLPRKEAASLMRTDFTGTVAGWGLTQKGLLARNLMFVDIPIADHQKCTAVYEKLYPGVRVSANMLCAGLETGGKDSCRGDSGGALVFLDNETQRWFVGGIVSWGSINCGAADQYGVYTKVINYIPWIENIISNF
Chain of MASP-2 (CCP1-CCP2-SP) (O00187 445-686): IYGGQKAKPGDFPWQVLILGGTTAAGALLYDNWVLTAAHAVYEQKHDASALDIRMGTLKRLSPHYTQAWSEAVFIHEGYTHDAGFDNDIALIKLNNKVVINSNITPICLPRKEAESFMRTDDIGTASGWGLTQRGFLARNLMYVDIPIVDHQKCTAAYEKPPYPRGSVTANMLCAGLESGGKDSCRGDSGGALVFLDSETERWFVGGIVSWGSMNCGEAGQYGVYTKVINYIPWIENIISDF

In the case of `Cc1nc(N)ccc1CNC(=O)[C@H](C)NC(=O)[C@H]1C[C@H](Cc2ccc(C(C)(C)C)cc2)CN1` [compound 1380, (2R,4S)—N—((S)-1-(((6-Amino-2-methylpyridin-3-yl)methyl)amino)-1-oxopropan-2-yl)-4-(4-(tert-butyl)benzyl)pyrrolidine-2-carboxamide Dihydrochloride], the Ki at MASP-2 (CCP1-CCP2-SP) was 500 to 2500 nM; on mMASP-2 (read-out: mMASP-2 Ki), below 500 nM; at human α-thrombin (read-out: Thrombin Ki), above 25 µM. In addition, the “MASP-2 vs. thrombin selectivity” value at MASP-2 (CCP1-CCP2-SP) was “*** (≥25 to <100-fold)”. Moreover, in the assay with Lectin Pathway, the concentration for half-maximal inhibition (IC50) was above 50000 nM.
`Cc1nc(N)ccc1CNC(=O)[C@H](CCC(N)=O)NC(=O)[C@H]1C[C@H](Cc2ccccc2)CN1` [compound 1382, (S)—NI-((6-Amino-2-methylpyridin-3-yl)methyl)-2-((2R,4S)-4-benzylpyrrolidine-2-carboxamido)pentanediamide Di-trifluoroacetate salt]: the Ki was below 500 nM on MASP-2 (CCP1-CCP2-SP) (read-out: MASP-2 Ki), 2500 to 10000 nM on mMASP-2 and above 25 µM at human α-thrombin (read-out: Thrombin Ki). Moreover, at MASP-2 (CCP1-CCP2-SP), the “MASP-2 vs. thrombin selectivity” value was “*** (≥25 to <100-fold)”. In addition, the half-maximal inhibitory concentration (IC50) in the assay on Lectin Pathway lay in the range of 5000 to 50000 nM.
Turning to `Cc1cc(C)c(O)c(CNC(=O)[C@H](C)NC(=O)[C@H]2C[C@H](c3ccccc3)CN2)c1` [compound 1383, (2R,4R)—N—((S)-1-((2-Hydroxy-3,5-dimethylbenzyl)amino)-1-oxopropan-2-yl)-4-phenylpyrrolidine-2-carboxamide Hydrochloride], the inhibition constant (Ki) on MASP-2 (CCP1-CCP2-SP) is 500 to 2500 nM; at mMASP-2 (read-out: mMASP-2 Ki), 2500 to 10000 nM; on human α-thrombin (read-out: Thrombin Ki), above 25 µM. In addition, the IC50 in the assay with Lectin Pathway lay in the range of 5000 to 50000 nM.
Consider `Cc1nc(N)ccc1CNC(=O)[C@H](C)NC(=O)[C@H]1Cc2c([nH]c3ccccc23)CN1` [compound 1389, (R)—N—((S)-1-(((6-Amino-2-methylpyridin-3-yl)methyl)amino)-1-oxopropan-2-yl)-2,3,4,9-tetrahydro-1H-pyrido[3,4-b]indole-3-carboxamide Hydrochloride], for which the Ki is below 500 nM on MASP-2 (CCP1-CCP2-SP) (read-out: MASP-2 Ki), 2500 to 10000 nM on mMASP-2 (read-out: mMASP-2 Ki) and above 25 µM at human α-thrombin (read-out: Thrombin Ki). Besides, at MASP-2 (CCP1-CCP2-SP), the “MASP-2 vs. thrombin selectivity” value is “**** (≥100-fold)”. For the same compound, the IC50 in the assay with Lectin Pathway was 500 to 5000 nM.
For the compound `C[C@H](NC(=O)[C@H]1C[C@H](Cc2ccc3ccccc3c2)CN1)C(=O)NCc1cnc2[nH]cc(Cl)c2c1` [compound 1392, (2R,4S)—N—((S)-1-(((3-Chloro-1H-pyrrolo[2,3-b]pyridin-5-yl)methyl)amino)-1-oxopropan-2-yl)-4-(naphthalen-2-ylmethyl)pyrrolidine-2-carboxamide Di-Trifluoroacetate salt], the Ki at MASP-2 (CCP1-CCP2-SP) (read-out: MASP-2 Ki) was below 500 nM; at mMASP-2 (read-out: mMASP-2 Ki), below 500 nM; on human α-thrombin (Thrombin Ki (μM)), 0.5 to 2.5 µM. At MASP-2 (CCP1-CCP2-SP), the “MASP-2 vs. thrombin selectivity” value is “*** (≥25 to <100-fold)”. The same compound gave an IC50 in the assay with Lectin Pathway of 500 to 5000 nM.
Regarding `Cc1nc(N)ccc1CNC(=O)[C@H](C)NC(=O)[C@H]1C[C@H](Cc2ccc(-c3ccc(F)cc3C(N)=O)cc2)CN1` [compound 1397, (2R,4S)—N—((S)-1-(((6-amino-2-methylpyridin-3-yl)methyl)amino)-1-oxopropan-2-yl)-4-((2′-carbamoyl-4′-fluoro-[1,1′-biphenyl]-4-yl)methyl)pyrrolidine-2-carboxamide Di-trifluoroacetate salt], the Ki at MASP-2 (CCP1-CCP2-SP) (read-out: MASP-2 Ki) was below 500 nM; at mMASP-2 (read-out: mMASP-2 Ki), below 500 nM; on human α-thrombin (read-out: Thrombin Ki), above 25 µM. Also, on MASP-2 (CCP1-CCP2-SP), the “MASP-2 vs. thrombin selectivity” value was “**** (≥100-fold)”. In the assay on Lectin Pathway, this compound came in with a 50% inhibitory concentration (IC50) of 50 to 500 nM.
With `Cc1nc(N)ccc1CNC(=O)[C@H](C)NC(=O)[C@H]1Cc2c(sc3ccccc23)CN1` [compound 1400, (R)—N—((S)-1-(((6-Amino-2-methylpyridin-3-yl)methyl)amino)-1-oxopropan-2-yl)-1,2,3,4-tetrahydrobenzo[4,5]thieno[2,3-c]pyridine-3-carboxamide Hydrochloride], the Ki at MASP-2 (CCP1-CCP2-SP) (read-out: MASP-2 Ki) is below 500 nM; at mMASP-2 (read-out: mMASP-2 Ki) it was 2500 to 10000 nM; on human α-thrombin (read-out: Thrombin Ki) it was above 25 µM. In the assay with Lectin Pathway, this compound had a concentration for half-maximal inhibition (IC50) of 500 to 5000 nM.
Consider `C[C@H](NC(=O)[C@H]1C[C@H](Cc2cccc3ccccc23)CN1)C(=O)NCc1cc(Cl)ccc1-n1cnnn1` [compound 1414, (2R,4S)—N—((S)-1-((5-Chloro-2-(1H-tetrazol-1-yl)benzyl)amino)-1-oxopropan-2-yl)-4-(naphthalen-1-ylmethyl)pyrrolidine-2-carboxamide Hydrochloride], for which the Ki was below 500 nM at MASP-2 (CCP1-CCP2-SP) (read-out: MASP-2 Ki), below 500 nM at mMASP-2 (read-out: mMASP-2 Ki) and below 0.5 µM at human α-thrombin (read-out: Thrombin Ki). Also, on MASP-2 (CCP1-CCP2-SP), the “MASP-2 vs. thrombin selectivity” value is recorded as “−− (<1.0-fold)”. Further, the 50% inhibitory concentration (IC50) in the assay on Lectin Pathway was 50 to 500 nM.
Regarding `C[C@H](NC(=O)[C@H]1C[C@H](Cc2cccc3ccccc23)CN1)C(=O)NCc1cnc2[nH]cc(Cl)c2c1` [compound 1415, (2R,4S)—N—((S)-1-(((3-Chloro-1H-pyrrolo[2,3-b]pyridin-5-yl)methyl)amino)-1-oxopropan-2-yl)-4-(naphthalen-1-ylmethyl)pyrrolidine-2-carboxamide Hydrochloride], the inhibition constant Ki at MASP-2 (CCP1-CCP2-SP) (read-out: MASP-2 Ki) was below 500 nM; at mMASP-2 (read-out: mMASP-2 Ki) it was below 500 nM; at human α-thrombin (read-out: Thrombin Ki), below 0.5 µM. In addition, at MASP-2 (CCP1-CCP2-SP), the “MASP-2 vs. thrombin selectivity” value is “* (≥1.0 to <5.0-fold)”. The compound also gave a half-maximal inhibitory concentration (IC50) in the assay on Lectin Pathway of 50 to 500 nM.
Turning to `Cc1cc(C)cc(C[C@@H]2CN[C@@H](C(=O)N[C@@H](C)C(=O)NCc3cc(Cl)ccc3-n3cnnn3)C2)c1` [compound 1416, (2R,4S)—N—((S)-1-((5-Chloro-2-(1H-tetrazol-1-yl)benzyl)amino)-1-oxopropan-2-yl)-4-(3,5-dimethylbenzyl)pyrrolidine-2-carboxamide Hydrochloride], the inhibition constant Ki on MASP-2 (CCP1-CCP2-SP) (read-out: MASP-2 Ki) was below 500 nM; on mMASP-2 (read-out: mMASP-2 Ki) it was below 500 nM; on human α-thrombin (read-out: Thrombin Ki), below 0.5 µM. For the same compound, the “MASP-2 vs. thrombin selectivity” value at MASP-2 (CCP1-CCP2-SP) is “** (≥5.0 to <25-fold)”. In addition, the 50% inhibitory concentration (IC50) with Lectin Pathway lay within 50 to 500 nM.
In the case of `Cc1nc(N)ccc1CNC(=O)[C@H](C)NC(=O)[C@H]1C[C@H](Cc2ccc(Cl)c(Cl)c2)CN1` [compound 1422, (2R,4S)—N—((S)-1-(((6-Amino-2-methylpyridin-3-yl)methyl)amino)-1-oxopropan-2-yl)-4-(3,4-dichlorobenzyl)pyrrolidine-2-carboxamide Dihydrochloride], the Ki was below 500 nM on MASP-2 (CCP1-CCP2-SP) (read-out: MASP-2 Ki), below 500 nM at mMASP-2 (read-out: mMASP-2 Ki) and 2.5 to 10 µM on human α-thrombin (Thrombin Ki (μM)). For the same compound, on MASP-2 (CCP1-CCP2-SP), the “MASP-2 vs. thrombin selectivity” value is listed as “**** (≥100-fold)”. Moreover, the 50% inhibitory concentration (IC50) in the assay on Lectin Pathway lay within 500 to 5000 nM.
As for `Cc1nc(N)ccc1CNC(=O)[C@H](C)NC(=O)[C@H]1C[C@H](Cc2ccc(F)c3ccccc23)CN1` [compound 1423, (2R,4S)—N—((S)-1-(((6-Amino-2-methylpyridin-3-yl)methyl)amino)-1-oxopropan-2-yl)-4-((4-fluoronaphthalen-1-yl)methyl)pyrrolidine-2-carboxamide Dihydrochloride], the Ki is below 500 nM on MASP-2 (CCP1-CCP2-SP) (read-out: MASP-2 Ki), below 500 nM on mMASP-2 (read-out: mMASP-2 Ki) and 2.5 to 10 µM at human α-thrombin (Thrombin Ki (μM)). Further, at MASP-2 (CCP1-CCP2-SP), the “MASP-2 vs. thrombin selectivity” value is given as “**** (≥100-fold)”. Moreover, in the assay with Lectin Pathway, the IC50 lay in the range of 50 to 500 nM.
With `Cc1nc(N)ccc1CNC(=O)[C@H](C)NC(=O)[C@H]1C[C@H](Cc2ccc(C#N)cc2)CN1` [compound 1428, (2R,4S)—N—((S)-1-(((6-Amino-2-methylpyridin-3-yl)methyl)amino)-1-oxopropan-2-yl)-4-(4-cyanobenzyl)pyrrolidine-2-carboxamide Di-trifluoroacetate salt], the results for the Ki on MASP-2 (CCP1-CCP2-SP) (read-out: MASP-2 Ki), at mMASP-2 (read-out: mMASP-2 Ki) and on human α-thrombin (Thrombin Ki (μM)) were below 500 nM, 500 to 2500 nM and 10 to 25 µM, respectively. Besides, at MASP-2 (CCP1-CCP2-SP), the “MASP-2 vs. thrombin selectivity” value is reported as “**** (≥100-fold)”. The compound further yielded an IC50 in the assay with Lectin Pathway of 500 to 5000 nM.
For `Cc1nc(N)ccc1CNC(=O)[C@H](C)NC(=O)[C@H]1C[C@H](Cc2cccc(C#N)c2)CN1` [compound 1429, (2R,4S)—N—((S)-1-(((6-Amino-2-methylpyridin-3-yl)methyl)amino)-1-oxopropan-2-yl)-4-(3-cyanobenzyl)pyrrolidine-2-carboxamide Di-trifluoroacetate salt] the same measures were below 500 nM, below 500 nM, 2.5 to 10 µM, “**** (≥100-fold)” and 500 to 5000 nM.
On to `Cc1nc(N)ccc1CNC(=O)[C@H](C)NC(=O)[C@H]1C[C@H](Cc2ccc(Oc3ccccc3)cc2)CN1` [compound 1430, (2R,4S)—N—((S)-1-(((6-Amino-2-methylpyridin-3-yl)methyl)amino)-1-oxopropan-2-yl)-4-(4-phenoxybenzyl)pyrrolidine-2-carboxamide Di-trifluoroacetate salt], for which the Ki at MASP-2 (CCP1-CCP2-SP) (read-out: MASP-2 Ki) was below 500 nM; on mMASP-2 (read-out: mMASP-2 Ki), below 500 nM; at human α-thrombin (read-out: Thrombin Ki) it was above 25 µM. The “MASP-2 vs. thrombin selectivity” value at MASP-2 (CCP1-CCP2-SP) is on record as “**** (≥100-fold)”. Besides, the concentration for half-maximal inhibition (IC50) in the assay on Lectin Pathway is 500 to 5000 nM.
Consider `Cc1nc(N)ccc1CNC(=O)[C@H](C)NC(=O)[C@H]1C[C@H](Cc2ccc(C#N)c3ccccc23)CN1` [compound 1431, (2R,4S)—N—((S)-1-(((6-Amino-2-methylpyridin-3-yl)methyl)amino)-1-oxopropan-2-yl)-4-((4-cyanonaphthalen-1-yl)methyl)pyrrolidine-2-carboxamide Dihydrochloride], for which the Ki at MASP-2 (CCP1-CCP2-SP) (read-out: MASP-2 Ki) was below 500 nM; at mMASP-2 (read-out: mMASP-2 Ki) it was below 500 nM; on human α-thrombin (Thrombin Ki (μM)), 10 to 25 µM. The “MASP-2 vs. thrombin selectivity” value at MASP-2 (CCP1-CCP2-SP) is “**** (≥100-fold)”. Further, the IC50 in the assay with Lectin Pathway was in the range of 50 to 500 nM.
As for `Cc1nc(N)ccc1CNC(=O)[C@H](C)NC(=O)[C@H]1C[C@H](Cc2cc(Cl)cc3ccccc23)CN1` [compound 1432, (2R,4S)—N—((S)-1-(((6-Amino-2-methylpyridin-3-yl)methyl)amino)-1-oxopropan-2-yl)-4-((3-chloronaphthalen-1-yl)methyl)pyrrolidine-2-carboxamide Dihydrochloride], the inhibition constant Ki on MASP-2 (CCP1-CCP2-SP) (read-out: MASP-2 Ki) is below 500 nM; on mMASP-2 (read-out: mMASP-2 Ki), below 500 nM; on human α-thrombin (Thrombin Ki (μM)), 10 to 25 µM. Besides, the “MASP-2 vs. thrombin selectivity” value on MASP-2 (CCP1-CCP2-SP) is “**** (≥100-fold)”. The concentration for half-maximal inhibition (IC50) in the assay on Lectin Pathway lay within 500 to 5000 nM.
